The assay relates to BDF1 mice, P388 leukemia ip, median survival T/C. Briefly: NCI In Vivo Anticancer Drug Screen. Data for tumor model P388 Leukemia (intraperitoneal) in B6D2F1 (BDF1) mice. As to conditions: endpoint: median survival time, higher = longer survival. In a few lines:
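Mice carrying the transplantable tumour receive compound or vehicle. Survival is followed in each arm, and the treated measure is divided by the vehicle measure.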

Where [1] appears, read: dose: 25.0 mg/kg/injection, schedule: Q01DX009 (ip), vehicle: saline with Tween-80.
Where [2] appears, read: dose: 75.0 mg/kg/injection, schedule: Q01DX009 (ip), vehicle: saline with Tween-80.
Setting [3] is: dose: 12.5 mg/kg/injection, schedule: Q01DX009 (ip), vehicle: saline with Tween-80.
[4] abbreviates: dose: 50.0 mg/kg/injection, schedule: Q01DX009 (ip), vehicle: saline with Tween-80.
The mark [5] stands for this setting: dose: 100.0 mg/kg/injection, schedule: Q01DX009 (ip), vehicle: saline with Tween-80.
Setting [6] is: dose: 200.0 mg/kg/injection, schedule: Q01DX009 (ip), vehicle: saline with Tween-80.
Where [7] appears, read: dose: 12.5 mg/kg/injection, schedule: Q04DX003 (ip), vehicle: saline with Tween-80.
Where [8] appears, read: dose: 25.0 mg/kg/injection, schedule: Q04DX003 (ip), vehicle: saline with Tween-80.
Setting [9] is: dose: 50.0 mg/kg/injection, schedule: Q04DX003 (ip), vehicle: saline with Tween-80.
Setting [10] is: dose: 100.0 mg/kg/injection, schedule: Q04DX003 (ip), vehicle: saline with Tween-80.

The structures appear in SMILES notation. Values joined by “and” are separate entries in the source; they are usually repeats but may differ in a detail not shown here. Equal values may be shown once. Toxic doses and inconclusive results are not listed.

As to `C=C/C(C)=C/[C@H](C)C(=O)C[C@H](O)CC1CC(=O)NC(=O)C1`, the T/C is, setting by setting: (dose: 7.3 mg/kg/injection, schedule: Q01DX009 (ip), vehicle: saline with Tween-80) 111 % of control; (dose: 11.0 mg/kg/injection, schedule: Q01DX009 (ip), vehicle: saline with Tween-80) 121 % of control; (dose: 16.5 mg/kg/injection, schedule: Q01DX009 (ip), vehicle: saline with Tween-80) 171 % of control; under setting [1], 123 % of control and 124 % of control; (dose: 37.5 mg/kg/injection, schedule: Q01DX009 (ip), vehicle: saline with Tween-80) 152 % of control; under setting [2], 180 % of control.
Turning to `Cn1ncc2c(NCc3ccc(Cl)cc3)ncnc21`, the T/C reads like this: (dose: 6.25 mg/kg/injection, schedule: Q01DX009 (ip), vehicle: saline with Tween-80) 97 % of control; under setting [3], 101 % of control; under setting [1], 93 % of control; under setting [4], 97 % of control.
With `CC1(CO)C(O)CCC2(C)C1CCC1CC3CC12CCC3(O)CO` (stereo not given), the T/C is 155 % of control under setting [2] and 155 % of control (dose: 150.0 mg/kg/injection, schedule: Q01DX009 (ip), vehicle: saline with Tween-80).
As for `CCCC(=O)OCc1ccccn1`, the T/C is, setting by setting: under setting [4], 107 % of control; under setting [5], 102 % of control; under setting [6], 86 % of control.
For the compound `O=[N+]([O-])CC1CCCCC1O` (stereo not given), the T/C (dose: 6.25 mg/kg/injection, schedule: Q04DX003 (ip), vehicle: saline with Tween-80) was 100 % of control; the T/C under setting [7] was 100 % of control; the T/C under setting [8] was 90 % of control.
For `COc1ccc(-n2c(=O)c(N=Nc3ccccc3)c(O)n(-c3ccc(C)cc3)c2=S)cc1`, the T/C is, setting by setting: (dose: 50.0 mg/kg/injection, schedule: Q01DX001 (ip), vehicle: saline sonified) 90 % of control; (dose: 100.0 mg/kg/injection, schedule: Q01DX001 (ip), vehicle: saline sonified) 100 % of control; (dose: 200.0 mg/kg/injection, schedule: Q01DX001 (ip), vehicle: saline sonified) 100 % of control.
Consider `N#Cc1c(N)sc2c1CCCC2`, for which the T/C is 109 % of control (dose: 100.0 mg/kg/injection, schedule: Q01DX009 (ip), vehicle: saline); 109 % of control (dose: 200.0 mg/kg/injection, schedule: Q01DX009 (ip), vehicle: saline); 104 % of control (dose: 400.0 mg/kg/injection, schedule: Q01DX009 (ip), vehicle: saline).
As to `c1ccc(Cn2ccnc2C2OCCO2)cc1`, the T/C is, setting by setting: (dose: 6.25 mg/kg/injection, schedule: Q01DX009 (ip), vehicle: water) 95 % of control; (dose: 12.5 mg/kg/injection, schedule: Q01DX009 (ip), vehicle: water) 88 % of control; (dose: 12.5 mg/kg/injection, schedule: Q04DX003 (ip), vehicle: water) 104 % of control; (dose: 25.0 mg/kg/injection, schedule: Q04DX003 (ip), vehicle: water) 101 % of control; (dose: 50.0 mg/kg/injection, schedule: Q01DX009 (ip), vehicle: water) 112 % of control; (dose: 50.0 mg/kg/injection, schedule: Q04DX003 (ip), vehicle: water) 107 % of control. For the same compound, the T/C is, setting by setting: (dose: 100.0 mg/kg/injection, schedule: Q01DX009 (ip), vehicle: water) 93 % of control; (dose: 100.0 mg/kg/injection, schedule: Q04DX003 (ip), vehicle: water) 92 % of control; (dose: 200.0 mg/kg/injection, schedule: Q01DX009 (ip), vehicle: water) 87 % of control.
As for `O=C1C=CC(=O)c2cc(Cl)c(Cl)cc21`, the T/C reads like this: (dose: 3.13 mg/kg/injection, schedule: Q01DX009 (ip), vehicle: saline with Tween-80) 118 % of control; under setting [3], 86 % of control.
For the compound `COc1ccc2c(Cl)cc(NC(=O)Nc3c(C)cccc3C)nc2c1`, the T/C under setting [5] is 88 % of control.
On to `O=C(O)C1CCCC2C(O)CCC(=O)C12` (stereo not given), for which the T/C by setting is: under setting [5], 100 % of control; under setting [6], 109 % of control.
With `CCOC(=O)c1c[nH]c2ccc(N(CCCl)CCCl)cc12`, the T/C runs as follows: (dose: 0.29 mg/kg/injection, schedule: Q01DX009 (ip), vehicle: saline with Tween-80) 101 % of control; (dose: 0.44 mg/kg/injection, schedule: Q01DX009 (ip), vehicle: saline with Tween-80) 101 % of control; (dose: 0.88 mg/kg/injection, schedule: Q01DX009 (ip), vehicle: saline with Tween-80) 152 % of control; (dose: 0.88 mg/kg/injection, schedule: Q04DX003 (ip), vehicle: saline with Tween-80) 118 % of control; (dose: 1.32 mg/kg/injection, schedule: Q04DX003 (ip), vehicle: saline with Tween-80) 122 % of control; (dose: 1.33 mg/kg/injection, schedule: Q01DX009 (ip), vehicle: saline with Tween-80) 158 % of control. Moreover, the T/C is 177 % of control (dose: 2.0 mg/kg/injection, schedule: Q01DX009 (ip), vehicle: saline with Tween-80); 164 % of control (dose: 2.66 mg/kg/injection, schedule: Q01DX009 (ip), vehicle: saline with Tween-80); 186 % of control (dose: 3.0 mg/kg/injection, schedule: Q01DX009 (ip), vehicle: saline with Tween-80); 176 % of control (dose: 4.0 mg/kg/injection, schedule: Q01DX009 (ip), vehicle: saline with Tween-80); 158 % of control (dose: 5.0 mg/kg/injection, schedule: Q04DX003 (ip), vehicle: saline with Tween-80); 191 % of control (dose: 6.0 mg/kg/injection, schedule: Q01DX009 (ip), vehicle: saline with Tween-80). The T/C is 166 % of control (dose: 7.5 mg/kg/injection, schedule: Q04DX003 (ip), vehicle: saline with Tween-80); 252 % of control (dose: 9.0 mg/kg/injection, schedule: Q01DX009 (ip), vehicle: saline with Tween-80); 190 % of control under setting [7]; 177 % of control under setting [8]; 218 % of control under setting [9].
With `CCC(C#N)C1=CCCCCC1` (stereo not given), the T/C is, setting by setting: under setting [8], 109 % of control; under setting [9], 121 % of control; under setting [10], 118 % of control.
As to `CC(C)(S(=O)(=O)Oc1ccccc1)S(=O)(=O)Oc1ccccc1`, the T/C under setting [10] was 93 % of control; the T/C (dose: 200.0 mg/kg/injection, schedule: Q04DX003 (ip), vehicle: saline with Tween-80) was 87 % of control; the T/C (dose: 400.0 mg/kg/injection, schedule: Q04DX003 (ip), vehicle: saline with Tween-80) was 92 % of control.
Take `COC(OC)c1cc(=O)[nH]c(=S)[nH]1`: the T/C is 100 % of control (dose: 100.0 mg/kg/injection, schedule: Q01DX001 (ip), vehicle: Klucel (hydroxypropylcellulose) (HPC)); 109 % of control (dose: 200.0 mg/kg/injection, schedule: Q01DX001 (ip), vehicle: Klucel (hydroxypropylcellulose) (HPC)); 90 % of control (dose: 400.0 mg/kg/injection, schedule: Q01DX001 (ip), vehicle: Klucel (hydroxypropylcellulose) (HPC)).
Regarding `O=C1c2ccccc2C(=Cc2ccccc2)c2ccccc21`, the T/C reads like this: under setting [5], 118 % of control; under setting [6], 100 % of control; (dose: 400.0 mg/kg/injection, schedule: Q01DX009 (ip), vehicle: saline with Tween-80) 113 % of control.
On to `C[n+]1c(-c2ccccc2)c2cc(N)ccc2c2ccccc21`, for which the T/C reads like this: (dose: 3.1 mg/kg/injection, schedule: Q04DX003 (ip), vehicle: saline) 110 % of control; (dose: 6.6 mg/kg/injection, schedule: Q01DX009 (ip), vehicle: saline) 153 % of control; (dose: 10.0 mg/kg/injection, schedule: Q01DX009 (ip), vehicle: saline) 165 % of control and 181 % of control; (dose: 10.0 mg/kg/injection, schedule: Q04DX003 (ip), vehicle: saline) 122 % of control.
On to `Cc1ccc(C(=O)N=[N+]=[N-])o1`, for which the T/C under setting [4] was 108 % of control.
For `COc1cccc2c1C13CC(C)CC(C2)C1CCC(=O)N3` (stereo not given), the T/C (dose: 75.0 mg/kg/injection, schedule: Q04DX003 (ip), vehicle: saline) was 100 % of control; the T/C (dose: 150.0 mg/kg/injection, schedule: Q04DX003 (ip), vehicle: saline) was 105 % of control; the T/C (dose: 300.0 mg/kg/injection, schedule: Q04DX003 (ip), vehicle: saline) is 116 % of control.

The values above are taken from PubChem BioAssay AID328 (DTP/NCI, 2004).
